Measurements: patent US20130281512A1, “AGENTS FOR TREATING DISORDERS INVOLVING MODULATION OF RYANODINE RECEPTORS” (LES LABORATOIRES SERVIER, priority 2012, published 2013)

Assays:
[1] = tested on: ischemia-reperfusion induced heart failure; assay: Model of chronic post-ischemic heart failure in rat (ischemia-reperfusion injury); assay type: in vivo
Method: Chronic heart failure was induced in male wistar rats (224-240 g, 10-11 weeks of age) by ischemia-reperfusion (I/R) injury. For I/R protocol, the left anterior descending (LAD) coronary artery was occluded for 1 h. Drug treatment (5 mg/kg/d or 10 mg/kg/d in drinking water) was initiated 1 week after reperfusion and was maintained for a 3 month study period. […] Cardiac specimens were also analyzed to assess hypertrophy and collagen content. The study design is depicted in FIG. 3. Experiments were performed in a blinded manner. On parameters measured over time, comparison of Sham versus Vehicle and comparison of drug treatments are analyzed by 2 way ANOVAs with repeated measures. On parameters measured at sacrifice and morphometry, comparisons of Sham versus Vehicle are analyzed by t-test and comparisons of drug treatments by 1-way ANOVA followed by Dunnett test.

[2] = Metabolic stability in rat hepatic microsomes (Clint, predicted MF %); assay type: in vitro ADME
Method: Compound solubilization: Stock solutions were made in DMSO, and working solutions in water containing 1 mg/ml BSA.
Prediction of metabolic bioavailability: Metabolic bioavailability predictions (MF %) were based on in vitro metabolic stability measurements with hepatic microsomes assuming total absorption. Briefly, unchanged drugs were quantified by LC-MS-MS following incubation (10^−7M) with rat and human hepatic microsomes (0.33 mg protein/ml) after 0, 5, 15, 30 and 60 min of incubation in presence of NADPH (1 mM). Enzymatic reaction was stopped with methanol (v/v) and proteins were precipitated by centrifugation. The in vitro intrinsic clearances (Clint_mic) expressed as ml/min/g protein were the slope (after LN linearization) of the unchanged drug remaining concentration versus incubation time. In vitro Clint were then scaled up to in vivo whole body (vivoClint) using 0.045 mg prot/kg of liver and liver weight of 11 g for the rat and 1.2 kg for Man.

[3] = target: T1, PKA-phosphorylated RyR2 (Homo sapiens, UniProt Q92736); assay: Calstabin2 rebinding assay: binding of calstabin2 to PKA-phosphorylated RyR2 (cardiac SR, immunoblot); conditions: 100 nM compound; immunoblot with calstabin2 antibody
T1 construct: Cardiac SR membranes were prepared as previously described; from tissue; host or cells: cardiac sarcoplasmic reticulum (heart muscle microsomes)
Method: Cardiac SR membranes were prepared as previously described (Marx et al., 2000; Kaftan et al., Circ. Res., 1996, 78:990-97). Immunoblotting of microsomes (50 μg) was performed as described, with anti-calstabin antibody (1:1,000) (Jayaraman et al., J. Biol. Chem., 1992, 267:9474-77) for 1 hr at room temperature (Reiken et al., Circulation, 107:2459-66, 2003). After incubation with HRP-labeled anti-rabbit IgG (1:5,000 dilution; Transduction Laboratories, Lexington, Ky.), the blots were developed using ECL (Amersham Pharmacia, Piscataway, N.J.) and detected on x-ray film, or exposed to secondary antibodies labeled with infrared Dye and visualized on equipment from Li-Cor Biosciences (model Odyssey). Unless otherwise stated, compounds were tested at a concentration of 100 nM. A representative calstabin2 binding assay is presented below.
A. PKA phosphorylation of cardiac sarcoplasmic reticulum (CSR)
B. Reaction mixture was set up in 1.5 ml microfuge tube. 200 μg of cardiac SR were added to a reaction mix of kinase buffer, PKA and ATP to a final volume of 100 (Reaction mix below). ATP was added last to initiate the reaction.
20 μl Sample (cardiac SR, 2 or 10 μg/μl) 10 μl=10× Kinase buffer (80 mM MgCl2, 100 mM EGTA, 500 mM Tris/PIPES), pH=7.0
20 μl PKA (2units/ul) (Sigma # P2645)
40 μl=distilled H2O • 1. The tubes were incubated at 30° C. for 30 minutes. • 2. The reaction mix was then transferred to 0.5 ml thick walled glass tubes. • 3. The glass tubes containing the reaction mix were centrifuged for 10 min at 50,000×g in Sorvall Centrifuge RCM120EX using S120AT3 rotor. Centrifugation at 50,000×g for 10 min is sufficient to isolate the microsomes. • 4. The resulting pellet was washed 4 times with binding buffer (10 mM Imidazol 300 mM Sucrose, pH=7.4). Each time 100111 of 1× binding buffer was added to the tube to wash the pellet. The pellet was resuspended by flushing up and down using the pipette tip. After the last spin 501.11 of binding buffer was added and the pellets from all tubes were pooled. The reaction was stored at −20° C. • 5. Phosphorylation was confirmed by separating approximately 10 μg of CSR by 6% Polyacylamide gel electrophoresis (PAGE) and analyzing the immunoblots for both total RyR (5029 Ab, 1:3000 dilution or Monoclonal Ab from Affinity Bioreagents, Cat # MA3-916, 1:2000 dilution) and PKA phosphorylated RyR2 (P2809 Ab, 1:10000 dilution). • 6. Aliquots can be stored at −80 C.
C. Calstabin Rebinding Assay
• 1. PKA-phosphorylated CSR (approximately 20 μg) was incubated with 250 nM Calstabin 2 in 100111 binding buffer (as described above) with or without compounds. • 2. […] Calstabin2 binding was detected with anti-FKBP (Jayaraman et al., J. Biol. Chem. 1992; 267:9474-77, 1:2000) primary antibody and appropriate secondary antibody.

[4] = 5 and 10 mg/kg/d in drinking water, one to three months, vs vehicle
[5] = 5 and 10 mg/kg/d, invasive hemodynamics at 3 months, vs vehicle

T1 sequence (Q92736 whole entry): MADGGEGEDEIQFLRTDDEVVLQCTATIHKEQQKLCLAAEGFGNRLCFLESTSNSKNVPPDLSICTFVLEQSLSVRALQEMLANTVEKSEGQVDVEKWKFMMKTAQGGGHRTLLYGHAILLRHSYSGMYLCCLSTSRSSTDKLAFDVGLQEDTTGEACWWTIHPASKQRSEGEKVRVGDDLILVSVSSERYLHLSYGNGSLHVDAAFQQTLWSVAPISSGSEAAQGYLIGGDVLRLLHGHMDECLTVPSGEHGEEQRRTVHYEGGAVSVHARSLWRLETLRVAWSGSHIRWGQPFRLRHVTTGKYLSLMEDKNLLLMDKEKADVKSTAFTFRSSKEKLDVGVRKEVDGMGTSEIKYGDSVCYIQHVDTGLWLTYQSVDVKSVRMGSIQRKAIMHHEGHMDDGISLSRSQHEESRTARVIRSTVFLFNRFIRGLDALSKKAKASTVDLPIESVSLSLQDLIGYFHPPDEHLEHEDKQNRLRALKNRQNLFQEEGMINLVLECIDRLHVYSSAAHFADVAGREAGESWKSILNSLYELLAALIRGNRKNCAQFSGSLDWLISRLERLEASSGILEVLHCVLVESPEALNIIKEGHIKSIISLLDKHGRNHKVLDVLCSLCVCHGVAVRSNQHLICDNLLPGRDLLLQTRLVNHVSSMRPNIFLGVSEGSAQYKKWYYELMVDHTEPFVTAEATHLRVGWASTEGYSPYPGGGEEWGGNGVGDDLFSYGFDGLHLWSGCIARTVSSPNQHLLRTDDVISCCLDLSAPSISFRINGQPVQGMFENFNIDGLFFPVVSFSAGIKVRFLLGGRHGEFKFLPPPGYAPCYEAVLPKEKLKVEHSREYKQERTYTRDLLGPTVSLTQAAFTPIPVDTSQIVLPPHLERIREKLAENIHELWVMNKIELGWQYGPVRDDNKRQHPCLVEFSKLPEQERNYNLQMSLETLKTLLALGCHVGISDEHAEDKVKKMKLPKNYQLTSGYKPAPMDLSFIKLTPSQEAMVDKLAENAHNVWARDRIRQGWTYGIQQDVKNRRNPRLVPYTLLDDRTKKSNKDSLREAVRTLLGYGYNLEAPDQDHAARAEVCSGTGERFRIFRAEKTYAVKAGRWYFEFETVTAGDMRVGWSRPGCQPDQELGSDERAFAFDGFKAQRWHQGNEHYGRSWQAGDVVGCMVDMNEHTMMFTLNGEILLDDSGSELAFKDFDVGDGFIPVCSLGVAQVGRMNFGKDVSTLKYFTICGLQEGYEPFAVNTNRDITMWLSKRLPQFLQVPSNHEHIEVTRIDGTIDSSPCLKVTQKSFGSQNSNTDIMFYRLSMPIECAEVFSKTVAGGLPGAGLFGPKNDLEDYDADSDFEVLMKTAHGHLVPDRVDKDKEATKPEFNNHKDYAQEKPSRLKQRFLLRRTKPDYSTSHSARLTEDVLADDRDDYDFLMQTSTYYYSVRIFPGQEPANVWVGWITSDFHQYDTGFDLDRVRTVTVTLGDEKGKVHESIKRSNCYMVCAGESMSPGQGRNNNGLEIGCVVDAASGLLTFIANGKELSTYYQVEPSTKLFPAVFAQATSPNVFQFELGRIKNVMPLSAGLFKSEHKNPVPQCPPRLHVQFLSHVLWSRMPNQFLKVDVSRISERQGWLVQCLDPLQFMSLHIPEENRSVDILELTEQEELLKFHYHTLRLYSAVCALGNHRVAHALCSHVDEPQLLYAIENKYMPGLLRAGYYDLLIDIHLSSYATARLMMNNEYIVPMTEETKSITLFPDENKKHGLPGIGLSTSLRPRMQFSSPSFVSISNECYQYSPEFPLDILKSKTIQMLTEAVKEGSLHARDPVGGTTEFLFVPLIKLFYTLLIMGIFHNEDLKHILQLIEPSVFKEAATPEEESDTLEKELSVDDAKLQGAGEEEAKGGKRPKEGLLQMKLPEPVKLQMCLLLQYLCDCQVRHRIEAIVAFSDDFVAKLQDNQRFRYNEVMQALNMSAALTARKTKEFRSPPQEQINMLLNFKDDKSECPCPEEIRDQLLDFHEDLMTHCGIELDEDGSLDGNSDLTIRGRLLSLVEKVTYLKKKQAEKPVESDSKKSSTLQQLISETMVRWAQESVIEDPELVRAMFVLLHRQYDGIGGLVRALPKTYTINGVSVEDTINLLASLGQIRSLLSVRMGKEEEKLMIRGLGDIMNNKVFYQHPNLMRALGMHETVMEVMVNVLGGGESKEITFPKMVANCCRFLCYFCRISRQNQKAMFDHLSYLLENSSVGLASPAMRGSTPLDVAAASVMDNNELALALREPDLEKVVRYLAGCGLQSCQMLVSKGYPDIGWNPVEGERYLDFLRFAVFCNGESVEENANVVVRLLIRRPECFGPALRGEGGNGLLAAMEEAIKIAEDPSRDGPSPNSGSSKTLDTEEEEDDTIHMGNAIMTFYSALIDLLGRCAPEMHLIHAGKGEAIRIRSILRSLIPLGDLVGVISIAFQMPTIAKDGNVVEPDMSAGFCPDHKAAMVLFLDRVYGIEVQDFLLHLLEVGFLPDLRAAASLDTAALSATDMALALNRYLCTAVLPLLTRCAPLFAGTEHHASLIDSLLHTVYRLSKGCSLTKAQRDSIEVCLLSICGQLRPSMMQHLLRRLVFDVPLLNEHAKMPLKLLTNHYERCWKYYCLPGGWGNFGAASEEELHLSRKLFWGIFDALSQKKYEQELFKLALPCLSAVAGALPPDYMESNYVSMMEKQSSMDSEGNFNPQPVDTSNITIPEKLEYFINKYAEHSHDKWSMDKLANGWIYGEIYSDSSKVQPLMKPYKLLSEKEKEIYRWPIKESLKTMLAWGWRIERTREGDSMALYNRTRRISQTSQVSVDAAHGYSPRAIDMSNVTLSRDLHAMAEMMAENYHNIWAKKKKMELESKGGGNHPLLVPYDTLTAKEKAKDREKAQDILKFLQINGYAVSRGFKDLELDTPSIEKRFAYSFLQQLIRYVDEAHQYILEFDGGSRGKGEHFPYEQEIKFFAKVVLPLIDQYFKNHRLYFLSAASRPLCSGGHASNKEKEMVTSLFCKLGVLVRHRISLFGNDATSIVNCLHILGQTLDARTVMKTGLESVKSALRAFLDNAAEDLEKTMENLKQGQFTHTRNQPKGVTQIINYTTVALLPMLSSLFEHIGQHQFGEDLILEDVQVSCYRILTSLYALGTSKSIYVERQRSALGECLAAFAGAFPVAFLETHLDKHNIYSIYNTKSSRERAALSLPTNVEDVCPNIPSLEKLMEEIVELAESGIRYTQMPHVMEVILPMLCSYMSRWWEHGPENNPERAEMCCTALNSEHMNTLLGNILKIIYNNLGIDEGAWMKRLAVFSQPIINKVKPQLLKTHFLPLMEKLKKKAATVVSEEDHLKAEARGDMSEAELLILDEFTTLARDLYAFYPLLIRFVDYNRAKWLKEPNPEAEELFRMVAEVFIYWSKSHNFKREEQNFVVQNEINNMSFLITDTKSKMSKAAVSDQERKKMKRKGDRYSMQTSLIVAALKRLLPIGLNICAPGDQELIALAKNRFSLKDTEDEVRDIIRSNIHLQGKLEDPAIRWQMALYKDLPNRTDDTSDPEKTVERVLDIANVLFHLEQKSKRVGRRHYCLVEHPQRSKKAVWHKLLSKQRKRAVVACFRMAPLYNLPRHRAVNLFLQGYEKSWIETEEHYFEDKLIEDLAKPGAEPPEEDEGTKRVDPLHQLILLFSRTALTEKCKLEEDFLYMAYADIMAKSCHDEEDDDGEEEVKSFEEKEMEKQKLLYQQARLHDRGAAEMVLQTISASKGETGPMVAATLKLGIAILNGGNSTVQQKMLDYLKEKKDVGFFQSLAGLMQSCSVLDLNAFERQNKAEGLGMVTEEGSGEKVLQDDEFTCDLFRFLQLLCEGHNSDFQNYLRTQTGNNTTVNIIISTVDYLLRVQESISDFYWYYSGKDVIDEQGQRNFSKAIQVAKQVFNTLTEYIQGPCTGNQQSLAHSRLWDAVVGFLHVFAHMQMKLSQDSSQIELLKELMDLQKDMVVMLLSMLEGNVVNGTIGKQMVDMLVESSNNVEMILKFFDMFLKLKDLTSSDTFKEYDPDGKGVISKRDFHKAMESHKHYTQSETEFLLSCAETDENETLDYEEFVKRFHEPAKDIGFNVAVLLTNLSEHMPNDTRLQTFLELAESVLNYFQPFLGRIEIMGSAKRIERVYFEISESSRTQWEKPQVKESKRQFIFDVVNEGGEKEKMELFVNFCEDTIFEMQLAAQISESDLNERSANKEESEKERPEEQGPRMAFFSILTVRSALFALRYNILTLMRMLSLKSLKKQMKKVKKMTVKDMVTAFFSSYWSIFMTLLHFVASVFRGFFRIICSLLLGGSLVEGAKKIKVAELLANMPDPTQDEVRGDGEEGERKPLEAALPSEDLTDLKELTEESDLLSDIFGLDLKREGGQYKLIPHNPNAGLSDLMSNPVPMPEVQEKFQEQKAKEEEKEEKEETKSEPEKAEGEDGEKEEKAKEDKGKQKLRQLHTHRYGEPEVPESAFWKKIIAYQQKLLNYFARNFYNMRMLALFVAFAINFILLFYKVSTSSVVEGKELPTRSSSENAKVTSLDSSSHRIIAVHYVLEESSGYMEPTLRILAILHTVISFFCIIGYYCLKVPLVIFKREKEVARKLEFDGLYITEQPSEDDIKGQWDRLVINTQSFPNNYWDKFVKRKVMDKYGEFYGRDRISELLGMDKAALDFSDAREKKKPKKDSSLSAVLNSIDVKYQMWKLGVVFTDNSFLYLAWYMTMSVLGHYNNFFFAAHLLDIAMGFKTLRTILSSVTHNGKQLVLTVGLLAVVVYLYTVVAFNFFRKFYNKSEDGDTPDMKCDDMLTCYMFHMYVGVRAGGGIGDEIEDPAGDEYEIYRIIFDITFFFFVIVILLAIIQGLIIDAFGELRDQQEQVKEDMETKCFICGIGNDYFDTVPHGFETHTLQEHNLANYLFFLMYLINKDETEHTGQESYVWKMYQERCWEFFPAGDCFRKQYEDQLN
T1 sequence (P68106 whole entry partner): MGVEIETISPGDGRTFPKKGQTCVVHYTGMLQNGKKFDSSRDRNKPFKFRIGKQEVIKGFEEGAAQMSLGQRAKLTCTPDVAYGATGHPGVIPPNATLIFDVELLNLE

COc1ccc2c(c1)CN(Cc1ccc(C(=O)O)cc1)CCS2 [Compound 1, 4-((7-Methoxy-2,3-dihydrobenzo[f][1,4]thiazepin-4(5H)-yl)methyl)benzoic acid]
systolic and diastolic cardiac function ([1]; 5 mg/kg/d in drinking water, 3 months): beneficial effects
interstitial collagen content ([1]; 5 and 10 mg/kg/d in drinking water, 3 months, vs vehicle): reduced
Ejection Fraction (EF) [1, 4]: significantly increased
LVEDV (LV end diastolic volume) [1, 4]: decreased
LVESV (LV end systolic volume) [1, 4]: decreased
body weight (BW) ([1]; 5 and 10 mg/kg/d, 3 months): No effects
hypertrophy (LV weight) ([1]; 5 and 10 mg/kg/d, 3 months): No effects
infarct size ([1]; 5 and 10 mg/kg/d, 3 months): No effects
LV systolic pressure ([1]; 5 and 10 mg/kg/d, invasive hemodynamics at 3 months): no statistically significant change
LV dP/dt max [1, 5]: preservation
LV dP/dt min [1, 5]: preservation
Class (metabolic bioavailability) [2]: Inter- mediate
Clint_mic rat (in vitro intrinsic clearance) ([2]; 10^-7 M, 0.33 mg protein/ml, NADPH): 101 ml/min/gprot
MF mic % (metabolic bioavailability) ([2]; predicted from Clint assuming total absorption): 30%
binding of calstabin2 to PKA-phosphorylated RyR2 [3]: prevented the dissociation of calstabin2 from PKA-phosphorylated RyR2 and/or enhanced the (re)binding of calstabin2 to PKA-phosphorylated RyR
